In brackets after ≈: the same amount, converted by molar mass. Where a SMILES comes first, the peptide text is derived from it. Bridges are numbered along the chain shown (N, C = ends). Roman numbers before positions name the chains, in order. [ ]: non-standard residue; d: D form. The star is where a group is joined. Thr(ol) = C[C@@H](O)[C@H](N)CO; Tle = CC(C)(C)[C@H](N)C(=O)O; Hiv = CC(C)[C@H](O)C(=O)O; dDab = NCC[C@@H](N)C(=O)O; hSer = N[C@@H](CCO)C(=O)O; NHCH(CH2OH)2 = OCC(CO)N*; Orn = NCCC[C@H](N)C(=O)O; Dab = NCC[C@H](N)C(=O)O; Dap = NC[C@H](N)C(=O)O
Key:
Assay type in all cases: cell-based
[1] = tested on: human red blood cells (hRBC); assay: Hemolysis; details: red cells of human, 1 h, 200
How it was run: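 Read-out is supernatant absorbance at 540 nm, normalised to full lysis by 2% Triton X-100 and zero lysis by PBS with 10% water. Peptides (200 μg/mL) were exposed to 20% v/v washed human erythrocytes at 37° C for 1 h under shaking.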

[2] = tested on: Acinetobacter baumannii DSM 30008; details: DSM 30008
How it was run: (§1)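 Cation-adjusted MH-II broth, 0.002% polysorbate 80, inoculum near 10^6 CFU/mL. MIC read visually after 18-20 h, 35° C; units μg/mL.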

[3] = tested on: Pseudomonas aeruginosa ATCC 27853; details: ATCC 27853
How it was run: as §1

[4] = tested on: Klebsiella pneumoniae SSI #3010; details: SSI #3010
How it was run: as §1

[5] = tested on: Enterobacter cloacae 848840; details: 848840
How it was run: as §1

Escherichia coli 926415 = details: 926415
How it was run: as §1

[6] = tested on: Klebsiella pneumoniae 968733; details: 968733
How it was run: as §1

[7] = tested on: Acinetobacter baumannii 872842; details: 872842
How it was run: as §1

[8] = tested on: Escherichia coli ATCC 25922; details: ATCC 25922
How it was run: as §1

| SMILES | Hemolysis at 200 μg/mL [1] [%] | MIC [2] [µg/mL] | MIC [3] [µg/mL] | MIC [4] [µg/mL] | MIC [5] [µg/mL] | MIC (Escherichia coli 926415) [µg/mL] | MIC [6] [µg/mL] | MIC [7] [µg/mL] | MIC [8] [µg/mL] | Acinetobacter baumannii DSM 30008 MIC [2] [µg/mL] | Pseudomonas aeruginosa ATCC 27853 MIC [3] [µg/mL] | Klebsiella pneumoniae SSI #3010 MIC [4] [µg/mL] | Escherichia coli ATCC 25922 MIC [8] [µg/mL] |
| --- | --- | --- | --- | --- | --- | --- | --- | --- | --- | --- | --- | --- | --- |
| CC(C)C[C@@H]1NC(=O)[C@@H](CC(C)C)NC(=O)[C@H](CCN)NC(=O)[C@@H](NC(=O)[C@H](CCN)NC(=O)[C@@H](NC(=O)[C@H](CCN)NC(=O)CC[C@@H]2NC(=O)[C@H](CCN)NC(=O)[C@H](Cc3ccc(O)cc3)NC(=O)[C@@H](NC(=O)[C@@H](O)C(C)C)CSSC[C@@H](C(=O)N[C@H](CO)[C@@H](C)O)NC(=O)[C@H](C(C)(C)C)NC(=O)[C@H](CO)NC(=O)[C@H](Cc3c[nH]c4ccccc34)NC(=O)[C@H](CO)NC(=O)[C@@H](CCN)NC2=O)[C@@H](C)O)CCNC(=O)[C@H]([C@@H](C)O)NC(=O)[C@H](CCN)NC(=O)[C@H](CCN)NC1=O [Ex. 80] (I: H-[Hiv]CY[Dab]E[dDab]SWS[Tle]C[Thr(ol)] / II: [Dab]T[Dab][Dab][Dab][dL]L[Dab][Dab]T; disulfide I:2-I:11; amide I:5-II:N; lactam II:4-II:C) | <1 | 0.125 (≈ 0.0524 µM) | 0.125 (≈ 0.0524 µM) | 0.125 (≈ 0.0524 µM) | 0.125 (≈ 0.0524 µM) | 0.0625 (≈ 0.0262 µM) | 0.125 (≈ 0.0524 µM) | 0.0625 (≈ 0.0262 µM) | 0.03125 (≈ 0.0131 µM) |  |  |  |  |
| CC(=O)N[C@H](C(=O)N[C@H]1CSSC[C@@H](C(=O)N[C@@H](CO)C(=O)O)NC(=O)[C@H](C(C)(C)C)NC(=O)[C@H](CO)NC(=O)[C@H](Cc2c[nH]c3ccccc23)NC(=O)[C@H]([C@@H](C)O)NC(=O)[C@@H](CCN)NC(=O)[C@H](CCC(=O)N[C@@H](CCN)C(=O)N[C@H](C(=O)N[C@@H](CCN)C(=O)N[C@H]2CCNC(=O)[C@H]([C@@H](C)O)NC(=O)[C@H](CCN)NC(=O)[C@H](CCN)NC(=O)[C@H](CC(C)C)NC(=O)[C@@H](CC(C)C)NC(=O)[C@H](CCN)NC2=O)[C@@H](C)O)NC(=O)[C@H](CCN)NC(=O)[C@H](Cc2ccc(O)cc2)NC1=O)C(C)C [Ex. 52] (I: Ac-VCY[Dab]E[dDab]TWS[Tle]CS-OH / II: [Dab]T[Dab][Dab][Dab][dL]L[Dab][Dab]T; disulfide I:2-I:11; amide I:5-II:N; lactam II:4-II:C) | <1 | 1 (≈ 0.41 µM) | 0.25 (≈ 0.102 µM) | 0.25 (≈ 0.102 µM) | 2 (≈ 0.819 µM) | 2 (≈ 0.819 µM) | 4 (≈ 1.64 µM) | 2 (≈ 0.819 µM) | 0.25 (≈ 0.102 µM) |  |  |  |  |
| CC(C)C[C@@H]1NC(=O)[C@@H](CC(C)C)NC(=O)[C@H](CCN)NC(=O)[C@@H](NC(=O)[C@H](CN)NC(=O)[C@@H](NC(=O)[C@H](CCN)NC(=O)CC[C@@H]2NC(=O)CNC(=O)[C@H](CCCN)NC(=O)[C@H](CCN)NC(=O)[C@H](Cc3ccc(O)cc3)NC(=O)[C@@H](NC(=O)[C@@H](O)C(C)C)CSSC[C@@H](C(=O)NC(CO)CO)NC(=O)[C@H](C(C)(C)C)NC(=O)[C@H](CO)NC(=O)[C@H](Cc3c[nH]c4ccccc34)NC2=O)[C@@H](C)O)CCNC(=O)[C@H]([C@@H](C)O)NC(=O)[C@H](CCN)NC(=O)[C@H](CCN)NC1=O [Ex. 173] (I: H-[Hiv]CY[Dab][Orn]GEWS[Tle]C-{NHCH(CH2OH)2} / II: [Dab]T[Dap][Dab][Dab][dL]L[Dab][Dab]T; disulfide I:2-I:11; amide I:7-II:N; lactam II:4-II:C) | <1 | 0.0625 (≈ 0.0267 µM) | 0.5 (≈ 0.213 µM) | 0.125 (≈ 0.0534 µM) | 4 (≈ 1.71 µM) | 0.25 (≈ 0.107 µM) | 2 (≈ 0.854 µM) | 0.125 (≈ 0.0534 µM) | 0.125 (≈ 0.0534 µM) |  |  |  |  |
| CC(C)C[C@@H]1NC(=O)[C@H](CCN)NC(=O)[C@H](CCN)NC(=O)[C@H](CC(C)C)NC(=O)[C@@H](CC(C)C)NC(=O)[C@H](CCN)NC(=O)[C@@H](NC(=O)[C@@H](CCN)NC(=O)CC[C@H]2NC(=O)[C@H](CCCN)NC(=O)[C@H](CCN)NC(=O)[C@H](Cc3ccc(O)cc3)NC(=O)[C@@H](NC(=O)[C@@H](O)C(C)C)CSSC[C@@H](C(=O)N[C@H](C(N)=O)[C@@H](C)O)NC(=O)[C@H](C(C)(C)C)NC(=O)[C@H](CO)NC(=O)[C@H](Cc3c[nH]c4ccccc34)NC(=O)[C@H]([C@@H](C)O)NC2=O)CCNC1=O [Ex. 165] (I: H-[Hiv]CY[Dab][Orn][dE]TWS[Tle]CT-NH2 / II: [dDab][Dab][Dab][dL]L[Dab][Dab]L; disulfide I:2-I:11; amide I:6-II:N; lactam II:2-II:C) | <1 | 1 (≈ 0.447 µM) | 0.5 (≈ 0.223 µM) | 0.25 (≈ 0.112 µM) | 4 (≈ 1.79 µM) | 0.125 (≈ 0.0558 µM) | 0.5 (≈ 0.223 µM) | 1 (≈ 0.447 µM) | 0.25 (≈ 0.112 µM) |  |  |  |  |
| CC(=O)N[C@H](C(=O)N[C@H]1CSSC[C@@H](C(=O)N[C@@H](CO)C(N)=O)NC(=O)[C@H](C(C)(C)C)NC(=O)[C@H](CO)NC(=O)[C@H](Cc2c[nH]c3ccccc23)NC(=O)[C@H](CCN)NC(=O)[C@@H](CCN)NC(=O)[C@H](CCC(=O)N[C@@H](CCN)C(=O)N[C@H](C(=O)N[C@@H](CN)C(=O)N[C@H]2CCNC(=O)[C@H]([C@@H](C)O)NC(=O)[C@H](CCN)NC(=O)[C@H](CCN)NC(=O)[C@H](CC(C)C)NC(=O)[C@@H](CC(C)C)NC(=O)[C@H](CCN)NC2=O)[C@@H](C)O)NC(=O)[C@H](CO)NC(=O)[C@H](Cc2ccc(O)cc2)NC1=O)C(C)C [Ex. 133] (I: Ac-VCYSE[dDab][Dab]WS[Tle]CS-NH2 / II: [Dab]T[Dap][Dab][Dab][dL]L[Dab][Dab]T; disulfide I:2-I:11; amide I:5-II:N; lactam II:4-II:C) | 2 | 0.0625 (≈ 0.0259 µM) | 0.25 (≈ 0.104 µM) | 0.125 (≈ 0.0518 µM) | 0.25 (≈ 0.104 µM) | 0.0625 (≈ 0.0259 µM) | 0.125 (≈ 0.0518 µM) | 0.03125 (≈ 0.013 µM) | 0.03125 (≈ 0.013 µM) |  |  |  |  |
| CC(=O)N[C@H](C(=O)N[C@H]1CSSC[C@@H](C(=O)N[C@@H](CO)C(N)=O)NC(=O)[C@H](C(C)C)NC(=O)[C@H](CO)NC(=O)[C@H](Cc2c[nH]c3ccccc23)NC(=O)[C@H](CO)NC(=O)[C@@H](CCN)NC(=O)[C@H](CCC(=O)N[C@@H](CCN)C(=O)N[C@H](C(=O)N[C@@H](CN)C(=O)N[C@H]2CCNC(=O)[C@H]([C@@H](C)O)NC(=O)[C@H](CCN)NC(=O)[C@H](CCN)NC(=O)[C@H](C(C)C)NC(=O)[C@@H](CC(C)C)NC(=O)[C@H](CCN)NC2=O)[C@@H](C)O)NC(=O)[C@H](CCN)NC(=O)[C@H](Cc2ccc(O)cc2)NC1=O)C(C)C [Ex. 312] (I: Ac-VCY[Dab]E[dDab]SWSVCS-NH2 / II: [Dab]T[Dap][Dab][Dab][dL]V[Dab][Dab]T; disulfide I:2-I:11; amide I:5-II:N; lactam II:4-II:C) | <1 |  |  |  | 0.0625 (≈ 0.0262 µM) | 0.25 (≈ 0.105 µM) | 0.125 (≈ 0.0524 µM) | 0.0625 (≈ 0.0262 µM) |  | 0.03125 | 0.125 | 0.0625 | 0.03125 |
| CC[C@H](C)[C@@H]1NC(=O)[C@H](CO)NC(=O)[C@H](Cc2c[nH]c3ccccc23)NC(=O)[C@H](CO)NC(=O)[C@@H](CCN)NC(=O)[C@H](CCC(=O)N[C@@H](CCN)C(=O)N[C@H](C(=O)N[C@@H](CN)C(=O)N[C@H]2CCNC(=O)[C@H]([C@@H](C)O)NC(=O)[C@H](CCN)NC(=O)[C@H](CCN)NC(=O)[C@H](CC(C)C)NC(=O)[C@@H](CC(C)C)NC(=O)[C@H](CCN)NC2=O)[C@@H](C)O)NC(=O)[C@H](CN)NC(=O)[C@H](Cc2ccc(O)cc2)NC(=O)[C@@H](NC(=O)[C@@H](NC(C)=O)C(C)C)CCNC(=O)CC[C@@H](C(=O)N[C@@H](CO)C(N)=O)NC1=O [Ex. 322] (I: Ac-V[Dab]Y[Dap]E[dDab]SWSIES-NH2 / II: [Dab]T[Dap][Dab][Dab][dL]L[Dab][Dab]T; lactam I:2-I:11, II:4-II:C; amide I:5-II:N) | <1 |  |  |  | 0.0625 (≈ 0.026 µM) | 0.125 (≈ 0.052 µM) | 0.25 (≈ 0.104 µM) | 0.0625 (≈ 0.026 µM) |  | 0.0625 | 0.125 | 0.125 | 0.0625 |
| CC(=O)N[C@H](C(=O)N[C@H]1CCCNC(=O)[C@@H]([C@H](C)O)NC(=O)[C@H](C(C)(C)C)NC(=O)[C@H](CO)NC(=O)[C@H](Cc2c[nH]c3ccccc23)NC(=O)[C@H](CCO)NC(=O)[C@@H](CCN)NC(=O)[C@H](CCC(=O)N[C@@H](CCN)C(=O)N[C@H](C(=O)N[C@@H](CCN)C(=O)N[C@H]2CCNC(=O)[C@H]([C@@H](C)O)NC(=O)[C@H](CCN)NC(=O)[C@H](CCN)NC(=O)[C@H](CC(C)C)NC(=O)[C@@H](CC(C)C)NC(=O)[C@H](CCN)NC2=O)[C@@H](C)O)NC(=O)[C@H](CCN)NC(=O)[C@H](Cc2ccc(O)cc2)NC1=O)C(C)C [Ex. 15] (I: Ac-V[Orn]Y[Dab]E[dDab][hSer]WS[Tle][dT] / II: [Dab]T[Dab][Dab][Dab][dL]L[Dab][Dab]T; lactam I:2-I:C, II:4-II:C; amide I:5-II:N) | <1 | 0.125 (≈ 0.0532 µM) | 0.25 (≈ 0.106 µM) | 0.125 (≈ 0.0532 µM) | 0.125 (≈ 0.0532 µM) | 0.25 (≈ 0.106 µM) | 0.25 (≈ 0.106 µM) | 0.25 (≈ 0.106 µM) | 0.0625 (≈ 0.0266 µM) |  |  |  |  |

Source: patent US11629171B2, “Beta-hairpin peptidomimetics” (POLYPHOR AG, priority 2017, dated 2023)
